One data set deals with MDA-MB-436 cells. Nature of the data set: MDA-MB-436 cell proliferation (CellTiter-Glo). The format is cell-based. As to conditions: Homo sapiens. Here is the method:
RPMI 1640 medium, fetal bovine serum, penicillin/streptomycin were purchased from Promega (Madison, Wis.). The MCF-7 cell line and the MDA-MB-436 cell line were purchased from the European Collection of Authenticated Cell Cultures (ECACC). EnVision® Multilabel Plate Reader (PerkinElmer) was used.
(§1) The compounds to be tested were diluted three times using Bravo to the tenth concentration, i.e., diluted from 10 μM to 0.508 nM. A duplicate well test was performed. The medium was added to the middle plate in an amount of 49 μL per well. The gradient dilutions of the compounds were transferred in an amount of 1 μL per well to the middle plate at the corresponding positions, and the mixture was mixed and transferred to the cell plate in an amount of 5 μL per well. The cell plate was incubated in a carbon dioxide incubator for 6 days. Promega CellTiter-Glo reagent was added to the cell plate in an amount of 25 μL per well. The cell plate was incubated at room temperature for 10 minutes to stabilize the luminescence signal. EnVision® Multilabel Plate Reader (PerkinElmer) was used for signal detection.
The IC50 values were obtained by curve fitting using four parameters (obtained from the 205 mode in XLFIT5, iDBS). Table 1 provides the inhibitory activities of the compounds of the invention against the proliferation of MCF-7 cells and MDA-MB-436 cells.
Background: Cellular ATP, detected with luciferase, serves as a proxy for viable cell number.

A further data set relates to MCF-7 cells. Nature of the data set: MCF-7 cell proliferation (CellTiter-Glo, 6 days). As to conditions: for IC50: Homo sapiens, MCF7, proliferation, 6 days; for MCF-7/MDA-MB-436: ratio of the proliferation IC50 values. The format is cell-based, human. The procedure:
EnVision® Multilabel Plate Reader (PerkinElmer) was used.
MCF-7 cells were inoculated in a black 384-well plate by adding 45 μL of the cell suspension (containing 200 of MCF-7 cells) to each of the wells. The plate was incubated overnight in a carbon dioxide incubator.
as §1, with “A” for “The compounds to be tested were diluted three times using Bravo to the tenth concentration, i.e., diluted from 10 μM to 0.508 nM. A”

Data set [1] deals with Caco-2 monolayer cells. Description: Caco-2 cell bi-directional permeability assessment. A general note: Caco-2 monolayers are a common model of the intestinal barrier.
Description: (§5) The standard experimental conditions were as follows: • Test concentration: 2 μM (DMSO≤1%); • Number of replication: n=2; • Direction: bi-directional transportation, including two directions, i.e., A→B and B→A; • Incubation time: single time point, 2 hours; • Transport buffer: HBSS, pH 7.4; • Incubation conditions: 37° C., 5% CO2.
(§6) After the incubation, sample solutions taken from the dosing wells and the receiving wells were immediately mixed with a cold acetonitrile solution containing the internal standard. Concentrations of the test compounds in all samples (including the initial dosing solutions, the supernatants of the dosing wells and the receiving solutions) were determined by a LC/MS/MS method. The apparent permeability coefficients, the efflux ratios and other parameters were calculated.
Data set [2] is described as follows: Caco-2 cell bi-directional permeability assessment. As to conditions: human, Caco-2, pH 7.4.
Description: as §5, §6
For another data set, the target named is T1, CDK4/cyclin D1 (Homo sapiens, UniProt P11802).
T1 construct: purchased Life Technologies
T1 sequence (P11802 whole entry): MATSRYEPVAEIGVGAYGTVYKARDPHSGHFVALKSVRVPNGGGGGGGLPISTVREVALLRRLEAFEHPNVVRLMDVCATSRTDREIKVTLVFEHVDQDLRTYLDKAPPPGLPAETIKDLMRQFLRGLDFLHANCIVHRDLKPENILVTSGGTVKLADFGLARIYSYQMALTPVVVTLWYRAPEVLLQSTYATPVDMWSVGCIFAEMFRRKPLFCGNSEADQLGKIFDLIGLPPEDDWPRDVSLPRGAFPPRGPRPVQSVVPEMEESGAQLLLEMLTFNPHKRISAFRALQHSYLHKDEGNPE
T1 sequence (P24385 whole entry partner): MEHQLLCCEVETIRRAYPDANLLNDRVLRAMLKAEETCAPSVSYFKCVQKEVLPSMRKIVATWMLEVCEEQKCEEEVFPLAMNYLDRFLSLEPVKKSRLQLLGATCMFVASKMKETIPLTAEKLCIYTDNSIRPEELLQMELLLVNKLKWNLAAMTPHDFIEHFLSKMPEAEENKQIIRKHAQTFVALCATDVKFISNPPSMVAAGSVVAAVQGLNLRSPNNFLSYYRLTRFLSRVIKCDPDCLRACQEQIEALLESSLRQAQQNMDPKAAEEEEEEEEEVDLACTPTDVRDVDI
Nature of the data set: CDK4/cyclin D1 Lance Ultra enzyme assay. The format is biochemical. As to conditions: 350 μM ATP, 180 minutes. Here is the method:
(§2) The experimental materials included CDK2/cyclin A, CDK4/cyclin D1, CDK6/cyclin D1 (Life Technologies); ULight-labeled polypeptide substrates, i.e., ULight-4E-BP1 and ULight-MBP (PerkinElmer); the europium-labeled antibody against anti-myelin basic protein and europium-labeled rabbit antibody (PerkinElmer); and Envision® Multilabel Plate Reader (PerkinElmer) used for signal detection.
(§3) The compounds to be tested were diluted three times so as to be at ten gradually varied concentrations.
The dilutions of the compounds were dissolved in enzyme buffer, respectively. The components of the buffer included 50 mM hydroxyethylpiperazine ethanesulfonic acid solution (pH 7.5), 1 mM ethylenediaminetetraacetic acid, 10 mM magnesium chloride, 0.01% Brij-35, and 2 mM dithiothreitol. After the reaction started, the OptiPlate 384-well plate was sealed with top heat-sealing film TopSeal-A and incubated at room temperature for 180 minutes. • The Enzyme Reaction System of CDK6/Cyclin D1
(§4) The stop buffer of the enzyme reaction was prepared by dissolving EDTA in a one-fold dilution of the assay buffer. The reaction was terminated at room temperature for 5 minutes. To each of the reaction systems of CDK2/cyclin A, CDK4/cyclin D1 and CDK6/cyclin D1 was added 5 μL assay mixture (provided with antibody the europium-labeled against anti-myelin basic protein and the europium-labeled rabbit antibody, respectively). They were incubated at room temperature for 60 minutes. The reaction signals were detected by the EnVision instrument according to the principle of time-resolved fluorescence resonance energy transfer.

The test system of data set [3] is human breast cancer cell line MCF-7. The format is in vivo. Here is the method: The in vivo pharmacodynamic study was carried out in human-based tumor cell line-derived xenografted (CDX) BALB/c nude mice, in which were subcutaneously implanted human breast cancer cell line MCF-7.
. All the cages, matts and water were disinfected before use. All the animals had free access to a standard certified commercial laboratory diet. A total of 100 mice were purchased from Shanghai BK Laboratory Animal Co., LTD for study. An estrogen tablet ([…], sustained release within 60 days) was subcutaneously implanted in the left next abdomen of each mice. After 3 days, the tumor cells (10×10^6 in 0.2 mL of phosphate buffer) were subcutaneously implanted in the right next abdomen of each mice for the tumor growth. The administration started when the average tumor volume reached about 150-200 mm^3. The test compounds were orally administered daily, the doses were shown as Table 5. The tumor volumes were measured with a two-dimensional caliper every three days, the volumes were expressed in cubic millimeters and calculated by the formula V=0.5a×b^2, wherein a and b were the major diameter and minor diameter of the tumor, respectively. Antitumor efficacy was determined by dividing an average increase of the tumor volumes of the animals treated with the compounds by an increase of the tumor volumes of the untreated animals.

The nature of data set [4]: Study of brain permeability after oral administration. It is filed as in vivo, SD rats. Here is the method:
SD rats were used as the test animals.
Twelve healthy 7- to 9-week-old adult male SD rats were purchased from Shanghai Slack Laboratory Animal Co., Ltd. A proper amount of the test compound was weighed to prepare a 0.5% methylcellulose suspension at 1 mg/mL. The rats received a single oral dose of 10 mg/kg. 0.5 h, 2 h, 8 h, and 24 hours after the administration, 3 rats were respectively killed, and their whole blood and brain tissues were collected. The plasma was prepared by centrifuging the whole blood (3000 g, 15 minutes, 4° C.). The samples of brain homogenate were prepared by mixing the brain tissues with a mixture of methanol and a phosphate buffer (methanol:phosphate buffer=1:2) as homogenate at a ratio of 5:1. The drug concentration of each sample was determined by LC/MS/MS, and AUC was calculated to evaluate the exposure.

A further data set deals with T2, CDK6/cyclin D1 (Homo sapiens, UniProt Q00534).
T2 construct: purchased Life Technologies
T2 sequence (Q00534 whole entry): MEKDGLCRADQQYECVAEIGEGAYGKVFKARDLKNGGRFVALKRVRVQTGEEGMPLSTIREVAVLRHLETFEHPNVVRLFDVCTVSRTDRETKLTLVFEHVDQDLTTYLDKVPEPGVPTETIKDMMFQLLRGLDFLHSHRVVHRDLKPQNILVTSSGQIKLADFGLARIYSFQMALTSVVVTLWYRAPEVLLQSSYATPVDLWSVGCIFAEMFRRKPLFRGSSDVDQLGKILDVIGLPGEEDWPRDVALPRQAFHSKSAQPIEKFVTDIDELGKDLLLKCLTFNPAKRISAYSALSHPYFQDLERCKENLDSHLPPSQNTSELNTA
T2 sequence (P24385 whole entry partner): as the sequence (P24385 whole entry partner) above
Description: CDK6/cyclin D1 Lance Ultra enzyme assay. It is filed as biochemical. As to conditions: 250 μM ATP, 180 minutes. Here is the method:
as §2, §3
The dilutions of the compounds were dissolved in enzyme buffer, respectively. The components of the buffer included 50 mM hydroxyethylpiperazine ethanesulfonic acid solution (pH 7.5), 1 mM ethylenediaminetetraacetic acid, 10 mM magnesium chloride, 0.01% Brij-35, and 2 mM dithiothreitol. After the reaction started, the OptiPlate 384-well plate was sealed with top heat-sealing film TopSeal-A and incubated at room temperature for 180 minutes.
as §4

Another data set addresses T3, CDK2/cyclin A (Homo sapiens, UniProt P24941).
T3 construct: purchased Life Technologies
Description: CDK2/cyclin A Lance Ultra enzyme assay. The format is biochemical. As to conditions: 25 μM ATP, 60 minutes. Here is the method:
as §2, §3
The gradient dilutions of the compounds were dissolved in enzyme buffer, respectively. The components of the buffer included 50 mM hydroxyethylpiperazine ethanesulfonic acid solution (pH 7.5), 1 mM ethylenediaminetetraacetic acid, 10 mM magnesium chloride, 0.01% Brij-35, and 2 mM dithiothreitol. After the reaction started, the OptiPlate 384-well plate was sealed with top heat-sealing film TopSeal-A and incubated at room temperature for 60 minutes. • The Enzyme Reaction System of CDK4/Cyclin D1
as §4

For data set [5], the system named is Caco-2 monolayer cells.
Description: as §5, §6
The next data set can be described thus: in vitro. The conditions noted are these: human, Caco-2, pH 7.4.
Where [6] appears, read: 10 mg/kg oral, time point 0.5 h.
Setting [7] is: human, Caco-2, 2 h, 2 μM, pH 7.4.

Like-named read-outs stand apart in the source and are kept apart here.

Description for in vitro: as §5, §6

The IC50 is the concentration that gives 50% inhibition. A higher IC50 goes with weaker potency. Usually Papp A→B stands for the apparent permeability from the apical to the basolateral side of a cell layer. Low values mean poor permeation, high ones ready permeation. Usually Papp B→A stands for the apparent permeability from the basolateral to the apical side of a cell layer. As a reminder, the efflux ratio is a quotient of directional permeabilities that is used to spot active efflux. As to `CC(C)c1c2cc(-c3nc(Nc4ccc(N5CCN(CCC#N)CC5)cn4)ncc3F)ccc2nn1C` [Example 7, 3-[4-[6-[[5-fluoro-4-(3-isopropyl-2-methyl-2H-indazol-5-yl)pyrimidin-2-yl]amino]-3-pyridyl]piperazin-1-yl]propanenitrile], the IC50 in the data set on MDA-MB-436 cells came out at 1.16 µM; in the data set with MCF-7 cells, 0.0372 µM; against CDK4/cyclin D1 it was 0.00182 µM; against CDK6/cyclin D1, 0.00452 µM; on CDK2/cyclin A, 0.012 µM. Further, the MCF-7/MDA-MB-436 with MCF-7 cells is listed as 31.1. For the same compound, in the data set on MCF-7 cells (versus LY2835219, in words), the “selectivity in inhibiting the proliferation of estrogen receptor positive breast cancer cells (MCF-7/MDA-MB-436)” value is reported as “higher selectivity”. Further, the “inhibitory activities against the proliferation of MCF-7 cells compared with the reference compounds” value in the data set on MCF-7 cells (versus Palbociclib and LY2835219, in words) was “higher inhibitory activities”. Further, the “Classification Permeability” value in the data set on Caco-2 monolayer cells [1] (Caco-2) is recorded as “High”. Moreover, the “Classification Substrates of efflux transporters” value with Caco-2 monolayer cells [1] (Caco-2) was “Unlikely”. For the same compound, the “permeability compared with the reference compounds” value in the data set on Caco-2 monolayer cells [1] (Caco-2, versus Palbociclib and LY2835219, in words) was “higher permeability”. In data set [2], this compound yielded an apical-to-basolateral permeability (Papp A→B) at 2 h, 2 μM of 6.55 ×10⁻⁶ cm/s. In addition, the basolateral-to-apical permeability (Papp B→A) at 2 h, 2 μM in [2] was 3.38 ×10⁻⁶ cm/s. Moreover, the efflux ratio at 2 h, 2 μM in data set [2] was found to be 0.52. For the same compound, the Tomor volumes in [3] (50.0 mg/kg orally daily, 0 day) was determined as 187 mm^3; in data set [3] (50.0 mg/kg orally daily, 7th day), 271 mm^3; in data set [3] (50.0 mg/kg orally daily, 14th day) it was 318 mm^3; in data set [3] (50.0 mg/kg orally daily, 21st day), 350 mm^3. Further, the “antitumor activities in the CDX model of MCF-7 breast cancer” value in [3] (in words) was “significant antitumor activities”. The “exposure in brain after 8 hours” value in data set [4] (10 mg/kg oral, in words) is “significantly decreased”. The Exposure in brain was 1564 nmol/kg in data set [4] (setting [6]); 2922 nmol/kg in [4] (10 mg/kg oral, time point 2 h); 307 nmol/kg in data set [4] (10 mg/kg oral, time point 8 h). In addition, the “exposure in brain tissue compared with the reference compounds” value in data set [4] (rat, versus Palbociclib and LY2835219, in words, b797: 0.5 hour and 2 hour) is given as “higher exposure”.

Turning to `CC(=O)c1c(C)c2cnc(Nc3ccc(N4CCNCC4)cn3)nc2n(C2CCCC2)c1=O` [Palbociclib, reference compound], the IC50 with MDA-MB-436 cells was found to be 9.85 µM; in the data set on MCF-7 cells, 0.087 µM. The MCF-7/MDA-MB-436 with MCF-7 cells is recorded as 113. For the same compound, in the data set with Caco-2 monolayer cells [5] (Caco-2), the “Classification Permeability” value was “Medium”. The “Average apparent permeability coefficient A to B” value in the data set with Caco-2 monolayer cells [5] (setting [7]) is 9.18 10^−6 cm/s. In addition, the “Average apparent permeability coefficient B to A” value in the data set with Caco-2 monolayer cells [5] (setting [7]) is 7.51 10^−6 cm/s. The Tomor volumes in [3] (45.0 mg/kg orally daily, 0 day) is given as 187 mm^3; in [3] (45.0 mg/kg orally daily, 7th day), 264 mm^3; in data set [3] (45.0 mg/kg orally daily, 14th day), 387 mm^3; in [3] (45.0 mg/kg orally daily, 21st day), 633 mm^3. Further, the “tolerability of high doses in the animals” value in data set [3] (mouse, in vivo) is “intolerable”. Also, the Exposure in brain in [4] (setting [6]) is on record as 80 nmol/kg; in [4] (10 mg/kg oral, time point 2 h), 329 nmol/kg; in data set [4] (10 mg/kg oral, time point 8 h), 184 nmol/kg. The compound also came in with an apparent permeability from apical to basolateral (Papp A→B) at 2 h, 2 μM in the data set “in vitro” of 0.85 ×10⁻⁶ cm/s. Also, in “in vitro”, the basolateral-to-apical permeability (Papp B→A) at 2 h, 2 μM was 16.5 ×10⁻⁶ cm/s.

Source of the values: patent US9969719B2, “Substituted 2-hydrogen-pyrazole derivative serving as anticancer drug” (CHIA TAI TIANQING PHARMACEUTICAL GROUP CO., LTD., priority 2015, dated 2018).
